Measured values from patent US20250262167A1, “COMPOUNDS, TARGETS AND PATHWAYS FOR MACROPHAGE MODULATION” (Massachusetts Institute of Technology, priority 2020, published 2025).

Legend:
[1] = system: β-arrestin2; assay: β-arrestin2 translocation assay (TIRF microscope); format: cell-based, mouse; details: 10 min, ImKCs and BMDMs; DPI 50 nM, S1P 3 mM
Description: FIGS. 21A-21I show DPI stimulates glycolysis through GPR3 and β-arrestin2. FIGS. 21A-21B show DPI-stimulated glycolysis is independent of the NOX activity. […] The mean fluorescence intensity (MFI) of 2-NBDG in cells was measured by flow cytometry and normalized to DMSO controls of wildtype BMDMs. Data are presented as the mean±sd (n=3). […] ImKCs were transfected with siRNA specific for Gpr3 or a scramble siRNA as control. […] Data are presented as the mean±sd (n=4). […] Data are presented as the mean±sd (n=12). […] Abbr2^−/− ImKC were constructed by CRISPR-Cas9-mediated gene editing. […] Data are presented as the mean±sd (n=4). […] ImKCs were transfected with Abbr2-GFP fusion gene and stimulated with DMSO, DPI (50 nM), or S1P (3 mM). The GFP signal was captured with a TIRF microscope at indicated time points. Shown are representative data of GFP signal at 0 min and 10 min, and merged signal from three independent experiments.
Specific parameters for glycolytic capacity and glycolytic reserve were calculated and summarized based on two independent experiments. […] The GFP signal was captured with a TIRF microscope at indicated time points. […]
BMDMs or ImKCs were cotransfected with plasmids encoding FLAG-GPR3-GFP or β-arrestin2-RFP. […] The fluorescent signals of membrane-bound receptor or β-arrestin2 were collected as live images using a total internal reflection fluorescence (TIRF) microscope (Olympus). […]

[2] = system: ImKCs; details: 6 hours, dose-dependent
Description: ImKCs were treated with DPI for 6 hrs and select metabolites in the glycolytic pathway and TCA cycle were quantified by LC-MS. Data are presented as the mean±sd (n=4). P values were calculated by student t-test. * P<0.05, ** P<0.01, *** P<0.001, **** P<0.0001.
ImKCs were treated with DPI (500 nM) for 24 hrs and the select metabolites were quantified by LC-MS. Shown are representative data of two independent experiments. P values were calculated by student t-test. * P<0.05, ** P<0.01. n.s. not significant.
ImKCs were treated with DPI (#81050, Cayman) at 50 or 500 nM for 6 hrs or 24 hrs. Cells were washed once in ice-cold 0.9% NaCl and lysates were extracted in 80% methanol solution containing internal standards for LC/MS by scraping on dry ice followed by 10-minute mixing with vortex in 4° C. Following lysate extraction, debris were removed by high-speed centrifugation and supernatant was dried using speedvac. Samples were analyzed by LC/MS on QExactive Orbitrap instruments (Thermo Scientific) in Whitehead Institute metabolite profiling core facility.

[3] = system: Kupffer cells (KCs); details: HFD mice
Description: Single cell suspension was prepared from mice from FIG. 24A after 8 weeks on HFD (6 mice per group), stained with anti-F4/80, anti-CD11b and anti-Gr-1. F4/80^+CD11b^+Gr1^low macrophages were purified by cell sorting followed by RNAseq. Shown are differentially expressed genes among the three groups. […] M1-type polarization is expressed as positive scores whereas M2-type polarization is expressed as negative scores.
Mouse livers were dissected and digested with Collagenase IV (Roche). Single cell suspension was stained with anti-F4/80, anti-CD11b and anti-Gr-1. F4/80^+CD11b^+Gr1^low macrophages were sorted by flow cytometry (BD Aria). RNAs were extracted with RNeasy MinElute Kit (Qiagen), converted into cDNA and sequenced using Next-Generation Sequencing (Illumina). RNA-seq data were aligned to the human genome (version hg19) and raw counts of each genes of each sample were calculated with bowtie2 2.2.3 (Langmead et al. 2009) and RSEM 1.2.15 (Li et al. 2011). Differential expression analysis was performed using the program edgeR at P<0.05 with a two-fold change (Robinson et al. 2010). The gene expression level across different samples was normalized and quantified using the function of cpm. DEGs were annotated using online functional enrichment analysis tool DAVID (Huang et al. 2007).

[4] = system: hMDMs differentiated into M2 by IL-4 plus IL-13; assay: Reprogramming screen and dosage response on M2-like differentiated macrophages; details: Homo sapiens, Macrophage, 24 h, read-out: EC;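 further: human monocyte-derived macrophages held 24 h in 5 ng/mL IL-4 plus IL-13 before 24 h compound exposure, with cell shape measured from images in 384-well plates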
[5] = system: mouse BMMs with anti-CD20 labelled human B lymphoma cells (GMB); assay: ADCP of mouse macrophages; format: cell-based; design: dose or concentration left out as unconfirmed; details: co-culture 2 hrs
Description: Conditioned medium (CM) was collected and filtered. B16F10 melanoma cells were cultured for 12 hrs with CM or CM heat-inactivated at 95° C. for 5 min. The number of tumor cells were quantified by flow cytometry. Data were summarized from two independent experiments. * P<0.05 by T-test. P values are shown based on t-test. […] Mouse BMMs (FIG. 14B) or hMDM (FIG. 14C) were treated with […] thiostrepton for 24 hrs, then co-cultured with equal number of eFluro670 and anti-CD20 labelled human B-cell lymphoma cells for 2 hrs, and analyzed by flow cytometry. Macrophages that have phagocytosed tumor cells are identified as efluro670+ and CD14+. Shown are representative eFluro670 histograms gating on CD14+ macrophages from three different experiments.
To examine whether thiostrepton-activating macrophages or conditioned medium have effects on tumor cell growth, BMMs were treated with thiostrepton for 24 hrs. Equal numbers of primed BMMs and melanoma cells (B16F10) were co-cultured for 12 hrs. […] Thiostrepton elevated ADCP of both human and mouse macrophages (FIGS. 14B-14C).

[6] = system: subcutaneous B16F10 tumors; assay: B16F10 melanoma model in B6 mice; format: in vivo, mouse; details: for tumor growth: alone; for tumor growth, with TA99: combination with TA99
[7] = flow cytometry, vs vehicle or TA99

Compound | translocation of β-arrestin2 from cytosol to the plasma membrane [1] | glucose level [2] | levels of TCA cycle intermediates [2] | levels of glycolysis intermediates (G6P, F1,6BP, G3P, pyruvate, lactate) [2] | expression of genes involved in glycolysis, oxidative phosphorylation and fatty acid metabolism in KCs [3] | expression of genes involved in inflammation in KCs [3] | macrophage polarization index (MPI) of KCs [3] | EC (M1 Z-score cutoff) [4] [µM] | ADCP [5] | tumor growth ([6]; I.P., 150 or 300 mg/kg, dosage-dependent) | tumor growth, with TA99 ([6]; I.P., 150 or 300 mg/kg) | expression of Tnf, Il1b, Cxcl1 and Cxcl2 in TAMs ([6]; RNA-seq, day 18, I.P. or S.C.) | macrophages and monocytes in tumors ([6]; day 18, flow cytometry, vs vehicle or TA99) | Arg1 in TAM [6, 7] | iNOS and CD86 in TAM [6, 7] | tumor growth ([6]; para-tumor S.C., 20 mg/kg) | tumor growth, with TA99 ([6]; para-tumor S.C., 20 mg/kg) | TNFα+ IFNγ+ NK cells in tumors ([6]; vs vehicle or TA99)
c1ccc2c(c1)[I+]c1ccccc1-2 [Diphenyleneiodonium chloride] | stimulated translocation | decreased significantly | all decreased | increased significantly | upregulated | significantly suppressed | reprogrammed to an intermediated phenotype | 0.336 |  |  |  |  |  |  |  |  |  | 
C=C(NC(=O)C(=C)NC(=O)c1csc(C2=N[C@@H]3c4csc(n4)[C@H]4NC(=O)c5csc(n5)[C@H]([C@](C)(O)[C@@H](C)O)NC(=O)[C@H]5CSC(=N5)/C(=C/C)NC(=O)[C@H]([C@@H](C)O)NC(=O)c5csc(n5)[C@]3(CC2)NC(=O)[C@H](C)NC(=O)C(=C)NC(=O)[C@H](C)NC(=O)[C@H]([C@@H](C)CC)N[C@@H]2C=Cc3c([C@H](C)O)cc(nc3[C@H]2O)C(=O)O[C@@H]4C)n1)C(N)=O [Thiostrepton] |  |  |  |  |  |  |  | 0.408 | elevated | strongly suppressed | additively | significantly upregulated | elevated levels | decreased levels | elevated levels | suppressed the tumor growth | additive effects | increased number
